From patent US20240208992A1, “MACROCYCLES AS CFTR MODULATORS” (Idorsia Pharmaceuticals Ltd, priority 2021, published 2024)
pEC50: −log10 of the molar value.

Target: human F508del-CFTR (Homo sapiens, UniProt P13569, DEL508-508)
Test: F508del-CFTR cell surface expression (corrector activity), DiscoveRx ß-galactosidase complementation chemiluminescence assay in recombinant U2OS cell line;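 further: U2OS cells co-expressing ProLink-tagged F508del-CFTR and a membrane-anchored enzyme acceptor, where more surface CFTR restores β-galactosidase activity measured by chemiluminescence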
Conditions: for pEC50: EC50, F508del-CFTR cell surface expression; for Emax: U2OS
[1] = U2OS cell line, 16h compound incubation, geomean values
[2] = in relation to the Emax of the corrector lumacaftor (=100%), U2OS cell line, 16h compound incubation, arithmetic mean values
[3] = U2OS cells, 16h compound incubation, geomean values
[4] = in relation to Emax of corrector lumacaftor (=100%), arithmetic mean values
[5] = U2OS cells, 16h compound incubation, geomean of several measurements
[6] = in relation to the Emax of the corrector lumacaftor (=100%), U2OS cells, 16h compound incubation, arithmetic mean

human F508del-CFTR, sequence (P13569 with tags, fused parts or gaps DEL508-508): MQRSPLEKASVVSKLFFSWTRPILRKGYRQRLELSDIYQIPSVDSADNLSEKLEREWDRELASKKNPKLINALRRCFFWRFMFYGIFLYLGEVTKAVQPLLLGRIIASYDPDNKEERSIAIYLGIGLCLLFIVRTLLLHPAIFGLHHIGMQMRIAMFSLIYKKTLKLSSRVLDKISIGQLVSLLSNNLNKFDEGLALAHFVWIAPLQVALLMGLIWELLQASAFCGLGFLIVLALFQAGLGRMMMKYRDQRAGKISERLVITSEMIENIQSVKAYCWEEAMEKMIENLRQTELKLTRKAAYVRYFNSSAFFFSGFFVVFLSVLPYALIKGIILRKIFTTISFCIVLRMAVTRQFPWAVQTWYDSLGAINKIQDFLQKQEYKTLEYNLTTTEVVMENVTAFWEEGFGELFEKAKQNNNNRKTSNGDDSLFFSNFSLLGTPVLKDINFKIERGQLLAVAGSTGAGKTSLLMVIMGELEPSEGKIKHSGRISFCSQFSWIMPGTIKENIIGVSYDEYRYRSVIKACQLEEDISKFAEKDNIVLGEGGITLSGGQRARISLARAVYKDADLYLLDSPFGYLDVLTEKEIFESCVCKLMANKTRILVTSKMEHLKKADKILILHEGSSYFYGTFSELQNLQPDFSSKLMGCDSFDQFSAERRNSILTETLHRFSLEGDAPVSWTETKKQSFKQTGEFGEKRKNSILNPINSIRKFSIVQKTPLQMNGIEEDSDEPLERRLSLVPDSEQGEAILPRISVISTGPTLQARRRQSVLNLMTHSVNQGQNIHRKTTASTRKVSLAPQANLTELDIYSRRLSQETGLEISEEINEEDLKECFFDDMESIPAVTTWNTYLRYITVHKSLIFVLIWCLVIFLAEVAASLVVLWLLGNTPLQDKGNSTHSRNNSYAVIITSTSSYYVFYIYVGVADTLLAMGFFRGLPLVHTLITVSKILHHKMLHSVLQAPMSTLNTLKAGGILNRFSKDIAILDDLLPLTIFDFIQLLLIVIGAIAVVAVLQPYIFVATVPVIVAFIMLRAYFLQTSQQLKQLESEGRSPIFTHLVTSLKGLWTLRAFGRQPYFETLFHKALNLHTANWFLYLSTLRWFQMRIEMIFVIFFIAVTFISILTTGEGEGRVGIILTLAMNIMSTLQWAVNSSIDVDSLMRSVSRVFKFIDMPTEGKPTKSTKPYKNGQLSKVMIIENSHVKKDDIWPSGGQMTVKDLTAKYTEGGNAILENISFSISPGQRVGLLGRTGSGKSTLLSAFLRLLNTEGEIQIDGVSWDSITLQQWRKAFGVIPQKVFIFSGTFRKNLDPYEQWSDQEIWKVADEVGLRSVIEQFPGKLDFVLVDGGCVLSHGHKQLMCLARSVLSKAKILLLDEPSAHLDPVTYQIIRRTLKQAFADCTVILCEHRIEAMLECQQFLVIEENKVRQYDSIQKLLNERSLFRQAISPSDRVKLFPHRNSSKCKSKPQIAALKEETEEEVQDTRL

Row | Structure (SMILES) | pEC50 [1] | Emax [2] [%] | further results
1 | CC(C)C[C@H]1C(=O)N2CCCC[C@@H]2C(=O)N[C@H](Cc2ccccc2)COc2ccc3ncn(C)c3c2C(=O)N[C@H](C(=O)NCCc2nc3c(s2)CCC3)CC(=O)N1C [Example 29, (8S,12S,18aR,21R)-21-benzyl-N-(2-(5,6-dihydro-4H-cyclopenta[d]thiazol-2-yl)ethyl)-12-isobutyl-5,11-dimethyl-6,10,13,19-tetraoxo-6,7,8,9,10,11,12,13,16,17,18,18a,19,20,21,22-hexadecahydro-5H,15H-imidazo[4′,5′:5,6]benzo[1,2-p]pyrido[2,1-f][1]oxa[4,7,10,14]tetraazacycloheptadecine-8-carboxamide] | 6.36 | 140 | 
2 | CC(C)C[C@H]1C(=O)N(CCC2CC3CCC2O3)CC(=O)N[C@H](Cc2ccccc2)COc2ccc3ccccc3c2C(=O)N[C@H](C(=O)NCCc2ccc3c(c2)OCO3)CC(=O)N1C (stereo partly drawn) [Example 330, (3S,7S,13R)-9-(2-(7-oxabicyclo[2.2.1]heptan-2-yl)ethyl)-N-(2-(benzo[d][1,3]dioxol-5-yl)ethyl)-13-benzyl-7-isobutyl-6-methyl-1,5,8,11-tetraoxo-1,2,3,4,5,6,7,8,9,10,11,12,13,14-tetradecahydronaphtho[1,2-p][1]oxa[4,7,10,14]tetraazacycloheptadecine-3-carboxamide] | 6.38 | 138 | 
3 | COc1nccc2c1C(=O)N[C@H](C(=O)NCCc1noc(C3CC3)n1)CC(=O)N(C)[C@@H](CC(C)C)C(=O)N(C)[C@@H](CCc1nc(-c3ccccc3)no1)C(=O)N[C@H](Cc1ccccc1)CO2 [Example 577, (3R,6S,9S,13S)-3-benzyl-N-(2-(5-cyclopropyl-1,2,4-oxadiazol-3-yl)ethyl)-9-isobutyl-16-methoxy-7,10-dimethyl-5,8,11,15-tetraoxo-6-(2-(3-phenyl-1,2,4-oxadiazol-5-yl)ethyl)-2,3,4,5,6,7,8,9,10,11,12,13,14,15-tetradecahydropyrido[3,4-p][1]oxa[4,7,10,14]tetraazacycloheptadecine-13-carboxamide] |  |  | pEC50 [3]: 6.22; Emax [4]: 268%
4 | COCC[C@@H]1C(=O)N[C@H](Cc2ccccc2)COc2cnc3ccccc3c2C(=O)N[C@H](C(=O)NCCc2cc(C)no2)CC(=O)N(C)[C@@H](CC(C)C)C(=O)N1C [Example 566, (3S,7S,10R,13R)-13-benzyl-7-isobutyl-10-(2-methoxyethyl)-6,9-dimethyl-N-(2-(3-methylisoxazol-5-yl)ethyl)-1,5,8,11-tetraoxo-1,2,3,4,5,6,7,8,9,10,11,12,13,14-tetradecahydro-[1]oxa[4,7,10,14]tetraazacycloheptadecino[17,16-c]quinoline-3-carboxamide] |  |  | pEC50 [3]: 6.15; Emax [4]: 278%
5 | CC(C)C[C@H]1C(=O)N(C)CC(=O)N[C@H](Cc2ccccc2)COc2cccc(OC(F)F)c2C(=O)N[C@H](C(=O)NCCc2ccc3c(c2)OCO3)CC(=O)N1C [Example 616, (3R,9S,13S)-N-(2-(benzo[d][1,3]dioxol-5-yl)ethyl)-3-benzyl-16-(difluoromethoxy)-9-isobutyl-7,10-dimethyl-5,8,11,15-tetraoxo-2,3,4,5,6,7,8,9,10,11,12,13,14,15-tetradecahydrobenzo[p][1]oxa[4,7,10,14]tetraazacycloheptadecine-13-carboxamide] |  |  | pEC50 [3]: 6.24; Emax [4]: 92%
6 | Cc1cc(CCNC(=O)[C@@H]2CC(=O)N(C)[C@@H](CC(C)C)C(=O)N(C)C3(CC3)C(=O)N[C@H](Cc3ccccc3)COc3cnc4ccccc4c3C(=O)N2)no1 [Example 117, (3′S,7′S,13′R)-13′-benzyl-7′-isobutyl-6′,9′-dimethyl-N-(2-(5-methylisoxazol-3-yl)ethyl)-1′,5′,8′,11′-tetraoxo-2′,3′,4′,5′,6′,7′,8′,9′,11′,12′,13′,14′-dodecahydro-1′H-spiro[cyclopropane-1,10′-[1]oxa[4,7,10,14]tetraazacycloheptadecino[17,16-c]quinoline]-3′-carboxamide] | 6.11 | 237 | 
7 | COc1cccc(CCNC(=O)[C@@H]2CC(=O)N(C)[C@@H](CC(C)C)C(=O)N(C)[C@H](CC(C)(C)C)C(=O)N[C@H](Cc3ccccc3)COc3cc(C)nc(OC)c3C(=O)N2)c1 [Example 873, (3R,6R,9S,13S)-3-benzyl-9-isobutyl-16-methoxy-N-(3-methoxyphenethyl)-7,10,18-trimethyl-6-neopentyl-5,8,11,15-tetraoxo-2,3,4,5,6,7,8,9,10,11,12,13,14,15-tetradecahydropyrido[3,4-p][1]oxa[4,7,10,14]tetraazacycloheptadecine-13-carboxamide] |  |  | pEC50 [5]: 7.39; Emax [6]: 336%
8 | COc1cc2c(cc1OC)C(=O)N[C@H](C(=O)NCCc1ccc3c(c1)CCCO3)CC(=O)N(C)[C@@H](CC(C)C)C(=O)N(C)CC(=O)N[C@H](Cc1ccccc1)CO2 [Example 3, (3R,9S,13S)-3-benzyl-N-(2-(chroman-6-yl)ethyl)-9-isobutyl-17,18-dimethoxy-7,10-dimethyl-5,8,11,15-tetraoxo-2,3,4,5,6,7,8,9,10,11,12,13,14,15-tetradecahydrobenzo[p][1]oxa[4,7,10,14]tetraazacycloheptadecine-13-carboxamide] | 6.09 | 151 | 
9 | COc1cccc(CCNC(=O)[C@@H]2CC(=O)N(C)[C@@H](CC(C)C)C(=O)N(C)CC(=O)N[C@H](Cc3ccccc3)COc3cnc4c(F)cccc4c3C(=O)N2)c1 [Example 350, (3S,7S,13R)-13-benzyl-18-fluoro-7-isobutyl-N-(3-methoxyphenethyl)-6,9-dimethyl-1,5,8,11-tetraoxo-1,2,3,4,5,6,7,8,9,10,11,12,13,14-tetradecahydro-[1]oxa[4,7,10,14]tetraazacycloheptadecino[17,16-c]quinoline-3-carboxamide] | 6.26 | 299 | 
10 | CCc1ccc(CCNC(=O)[C@@H]2CC(=O)N(C)[C@@H](CC(C)C)C(=O)N(C)CC(=O)N[C@H](Cc3ccccc3)COc3cc4c(cc3C(=O)N2)OCO4)cc1 [Example 227, (7R,13S,17S)-7-benzyl-N-(4-ethylphenethyl)-13-isobutyl-11,14-dimethyl-9,12,15,19-tetraoxo-6,7,8,9,10,11,12,13,14,15,16,17,18,19-tetradecahydro-[1,3]dioxolo[4′,5′:4,5]benzo[1,2-p][1]oxa[4,7,10,14]tetraazacycloheptadecine-17-carboxamide] | 6.54 | 103 | 
11 | COc1ccc(CCNC(=O)[C@@H]2CC(=O)N(C)[C@@H](CC(C)C)C(=O)N(C)[C@H](Cc3nc(-c4ccc(F)cn4)no3)C(=O)N[C@H](Cc3ccccc3)COc3cnc4ccc(F)cc4c3C(=O)N2)nc1 [Example 847, (3S,7S,10R,13R)-13-benzyl-20-fluoro-10-((3-(5-fluoropyridin-2-yl)-1,2,4-oxadiazol-5-yl)methyl)-7-isobutyl-N-(2-(5-methoxypyridin-2-yl)ethyl)-6,9-dimethyl-1,5,8,11-tetraoxo-1,2,3,4,5,6,7,8,9,10,11,12,13,14-tetradecahydro-[1]oxa[4,7,10,14]tetraazacycloheptadecino[17,16-c]quinoline-3-carboxamide] |  |  | pEC50 [5]: 6.73; Emax [6]: 340%
12 | COc1cccc2c1C(=O)N[C@H](C(=O)NCCc1cccc(OC(F)F)c1)CC(=O)N(C)[C@@H](CC(C)C)C(=O)N(CCC1CCCCC1)CC(=O)N[C@H](Cc1ccccc1)CO2 [Example 150, (3R,9S,13S)-3-benzyl-7-(2-cyclohexylethyl)-N-(3-(difluoromethoxy)phenethyl)-9-isobutyl-16-methoxy-10-methyl-5,8,11,15-tetraoxo-2,3,4,5,6,7,8,9,10,11,12,13,14,15-tetradecahydrobenzo[p][1]oxa[4,7,10,14]tetraazacycloheptadecine-13-carboxamide] | 6.82 | 130 | 
13 | CC(C)C[C@H]1C(=O)N(CCC2CCCCC2)CC(=O)N[C@H](Cc2ccccc2)COc2cnccc2C(=O)N[C@H](C(=O)NCCc2ccc3c(c2)OCO3)CC(=O)N1C [Example 265, (3R,9S,13S)-N-(2-(benzo[d][1,3]dioxol-5-yl)ethyl)-3-benzyl-7-(2-cyclohexylethyl)-9-isobutyl-10-methyl-5,8,11,15-tetraoxo-2,3,4,5,6,7,8,9,10,11,12,13,14,15-tetradecahydropyrido[4,3-p][1]oxa[4,7,10,14]tetraazacycloheptadecine-13-carboxamide] | 6.58 | 106 | 
14 | Cc1cccc(F)c1CCNC(=O)[C@@H]1CC(=O)N(C)[C@@H](CC(C)C)C(=O)N2CCCC[C@@H]2C(=O)N[C@H](Cc2ccccc2)COc2cnc3ccccc3c2C(=O)N1 [Example 104, (9S,13S,19aR,22R)-22-benzyl-N-(2-fluoro-6-methylphenethyl)-13-isobutyl-12-methyl-7,11,14,20-tetraoxo-7,8,9,10,11,12,13,14,17,18,19,19a,20,21,22,23-hexadecahydro-16H-pyrido[2′,11:6,7][1]oxa[4,7,10,14]tetraazacycloheptadecino[17,16-c]quinoline-9-carboxamide] | 6.68 | 204 | 
15 | CC(C)C[C@H]1C(=O)N(C)[C@H](Cc2nc(C(F)(F)F)no2)C(=O)N[C@H](Cc2ccccc2)COc2ccc3ncc(F)cc3c2C(=O)N[C@H](C(=O)NCCCOC(F)(F)F)CC(=O)N1C [Example 925, (3S,7S,10R,13R)-13-benzyl-20-fluoro-7-isobutyl-6,9-dimethyl-1,5,8,11-tetraoxo-N-(3-(trifluoromethoxy)propyl)-10-((3-(trifluoromethyl)-1,2,4-oxadiazol-5-yl)methyl)-1,2,3,4,5,6,7,8,9,10,11,12,13,14-tetradecahydro-[1]oxa[4,7,10,14]tetraazacycloheptadecino[16,17-f]quinoline-3-carboxamide] |  |  | pEC50 [5]: 7.04; Emax [6]: 286%
